Experimental data from EP1435238A1, “Methods for treating apnea and apnea disorders using optically pure R (+) ondansetron” (Sepracor Inc., priority 1999, dated 2000).

Experiment: Electrophysiological effects (EKG, QTc interval, cardiotoxicity) in dogs
Assay type: in vivo, mongrel dogs
Conditions: for prolongation of QTc interval (comparison in words): among the animals tested; for QTc Interval: dogs, rising cumulative dose at 30 minute intervals; for dogs died / survived: during or shortly after the experiment, four dogs per treatment, cumulative doses up to 4.0 mg/kg
[1] = 4.0 mg/kg, N=4 except S(-) ondansetron N=3

Method: An investigation was conducted to determine the effect of racemic ondansetron and the R(+)- and S(-)- enanatiomers of ondansetron in causing cardiac arrhythmias (cardiotoxicity) resulting from a lengthening of the cardiac action potential.
The order of administration was randomized to ensure that each dog received only one treatment.

SMILES | prolongation of QTc interval (comparison in words) | QTc Interval (1.0 mg/kg, N=4) | QTc Interval (2.0 mg/kg, N=4) | QTc Interval [1] | dogs died / survived | cardiotoxicity (comparison in words) (conclusion from QTc and mortality data)
Cc1nccn1CC1CCc2c(c3ccccc3n2C)C1=O (racemic) [R,S-Ondansetron, ondansetron] | most prolonged | 0.41 ± 0.01 s | 0.45 ± 0.01 s | 0.47 ± 0.01 s | survived | –
Cc1nccn1C[C@H]1CCc2c(c3ccccc3n2C)C1=O [R(+)-Ondansetron, R(+) ondansetron] | shortest | 0.39 ± 0.01 s | 0.40 ± 0.01 s | 0.41 ± 0.02 s | survived | less cardiotoxicity than either S(-) ondansetron or racemic ondansetron
Cc1nccn1C[C@@H]1CCc2c(c3ccccc3n2C)C1=O [S(-)-Ondansetron, S(-) ondansetron] | most prolonged | 0.43 ± 0.02 s | 0.44 ± 0.04 s | 0.44 ± 0.03 s | – | –
